# From PubChem BioAssay (NCI)
#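 How tested: cells in 96-well plates exposed to compound for 48 hours at five concentrations. The concentration for full growth arrest is given as TGI.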
# Tests used:
# Assay in all cases: NCI-60 cell line screen, 48 h
# [1] = system: 786-0 renal
# [2] = system: A498 renal
# [3] = system: A549 NSCLC
# [4] = system: ACHN renal
# [5] = system: BT-549 breast
# [6] = system: CAKI-1 renal
# [7] = system: CCRF-CEM leukemia
# [8] = system: COLO 205 colon
# [9] = system: DU-145 prostate
# [10] = system: EKVX NSCLC
# [11] = system: HCC-2998 colon
# [12] = system: HCT-116 colon
# [13] = system: HCT-15 colon
# [14] = system: HL-60(TB) leukemia
# [15] = system: HOP-62 NSCLC
# [16] = system: HOP-92 NSCLC
# [17] = system: HS 578T breast
# [18] = system: HT29 colon
# [19] = system: IGROV1 ovarian
# [20] = system: K-562 leukemia
# [21] = system: KM12 colon
# [22] = system: LOX IMVI melanoma
# [23] = system: M14 melanoma
# [24] = system: MALME-3M melanoma
# [25] = system: MCF7 breast
# [26] = system: MDA-MB-231 breast
# [27] = system: MDA-MB-435
# [28] = system: MDA-N
# [29] = system: MOLT-4 leukemia
# [30] = system: NCI-H226 lung
# [31] = system: NCI-H23 lung
# [32] = system: NCI-H460 lung
# [33] = system: NCI-H522 lung
# [34] = system: NCI/ADR-RES ovarian
# [35] = system: OVCAR-3 ovarian
# [36] = system: OVCAR-4 ovarian
# [37] = system: OVCAR-5 ovarian
# [38] = system: OVCAR-8 ovarian
# [39] = system: PC-3 prostate
# [40] = system: RPMI-8226 leukemia
# [41] = system: RXF 393 renal
# [42] = system: SF-268 CNS
# [43] = system: SF-295 CNS
# [44] = system: SF-539 CNS
# [45] = system: SK-MEL-2 melanoma
# [46] = system: SK-MEL-28 melanoma
# [47] = system: SK-MEL-5 melanoma
# [48] = system: SK-OV-3 ovarian
# [49] = system: SN12C renal
# [50] = system: SNB-19 CNS
# [51] = system: SNB-75 CNS
# [52] = system: SR leukemia
# [53] = system: SW-620 colon
# [54] = system: T-47D breast
# [55] = system: TK-10 renal
# [56] = system: U251 CNS
# [57] = system: UACC-257 melanoma
# [58] = system: UACC-62 melanoma
# [59] = system: UO-31 renal
structure (smiles),measurement,setting,value
CCN1CCC(O)(/C=C/c2ccc(C)cc2)C(C(=O)/C=C/c2ccc(C)cc2)C1 (centres undefined),TGI,[1],4.29 µM
same,TGI,[2],24.6 µM
same,TGI,[3],21.4 µM
same,TGI,[4],14.7 µM
same,TGI,[5],13.7 µM
same,TGI,[6],8.1 µM
same,TGI,[7],5.62 µM
same,TGI,[8],4.45 µM
same,TGI,[9],25.2 µM
same,TGI,[10],26.3 µM
same,TGI,[11],5.08 µM
same,TGI,[12],4.63 µM
same,TGI,[13],16.2 µM
same,TGI,[14],5.15 µM
same,TGI,[15],25.9 µM
same,TGI,[16],19.6 µM
same,TGI,[17],7.55 µM
same,TGI,[18],6.89 µM
same,TGI,[19],17.5 µM
same,TGI,[20],6.07 µM
same,TGI,[21],5.16 µM
same,TGI,[22],2.59 µM
same,TGI,[23],9.52 µM
same,TGI,[24],14.8 µM
same,TGI,[25],6.36 µM
same,TGI,[26],5.48 µM
same,TGI,[27],8.75 µM
same,TGI,[28],10.3 µM
same,TGI,[29],4.59 µM
same,TGI,[30],29 µM
same,TGI,[31],18.5 µM
same,TGI,[32],16.7 µM
same,TGI,[33],3.62 µM
same,TGI,[34],8.03 µM
same,TGI,[35],18.4 µM
same,TGI,[36],23 µM
same,TGI,[37],23.2 µM
same,TGI,[38],7.54 µM
same,TGI,[39],18.1 µM
same,TGI,[40],10.8 µM
same,TGI,[41],10.6 µM
same,TGI,[42],24.6 µM
same,TGI,[43],22.9 µM
same,TGI,[44],10.3 µM
same,TGI,[45],15.9 µM
same,TGI,[46],14.8 µM
same,TGI,[47],9.85 µM
same,TGI,[48],29.1 µM
same,TGI,[49],20.6 µM
same,TGI,[50],23.5 µM
same,TGI,[51],22 µM
same,TGI,[52],6.84 µM
same,TGI,[53],3.36 µM
same,TGI,[54],9.89 µM
same,TGI,[55],14.4 µM
same,TGI,[56],9.24 µM
same,TGI,[57],25.5 µM
same,TGI,[58],12.3 µM
same,TGI,[59],12.4 µM
